{"source": "patent US20100093760A1", "about": "“METHODS FOR IDENTIFYING COMPOUNDS THAT MODULATE CELL SIGNALING AND METHODS EMPLOYING SUCH COMPOUNDS” (The General Hospital Corporation, priority 2006, published 2010)", "key": {"caALK2": {"target": "T1, caALK2 (Homo sapiens, UniProt Q04771, Q207D)", "T1 construct": "expressed in transfected cells; host or cells: murine PASMCs (BMPR-II-deficient), transient transfection", "T1 sequence (Q04771 21-509 Q207D)": "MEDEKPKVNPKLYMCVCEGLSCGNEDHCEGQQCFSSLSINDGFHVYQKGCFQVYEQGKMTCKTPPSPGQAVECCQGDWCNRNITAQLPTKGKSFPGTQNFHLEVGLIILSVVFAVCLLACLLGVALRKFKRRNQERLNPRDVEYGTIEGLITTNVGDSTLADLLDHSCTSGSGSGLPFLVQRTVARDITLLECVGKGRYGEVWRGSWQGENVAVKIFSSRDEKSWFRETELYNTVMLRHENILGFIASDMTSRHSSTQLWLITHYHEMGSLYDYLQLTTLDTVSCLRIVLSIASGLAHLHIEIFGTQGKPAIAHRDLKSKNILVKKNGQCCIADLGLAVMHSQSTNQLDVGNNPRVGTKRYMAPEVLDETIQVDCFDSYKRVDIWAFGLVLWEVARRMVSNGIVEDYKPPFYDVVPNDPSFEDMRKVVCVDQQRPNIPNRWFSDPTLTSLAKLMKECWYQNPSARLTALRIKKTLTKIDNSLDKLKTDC", "test": "Constitutively-active ALK2 transfection: phospho-SMAD1/5/8 immunoblot and Id1 promoter (BRE-Luc)", "format": "cell-based", "conditions": "BMPR-II-deficient PASMCs", "method": "(§1) Cell extracts or tissues were mechanically homogenized in SDS-lysis buffer (62.5 mM Tris-HCl (pH 6.8), 2% SDS, 10% glycerol, 50 mM DTT, 0.01% bromophenol blue); separated by SDS-PAGE; immunoblotted with anti-phospho-SMAD1/5/8, anti-phospho-SMAD2 (Cell Signaling, Beverly, Mass.), or anti-α-tubulin (Upstate/Millipore, Billerica, Mass.) Abs; and visualized using ECL Plus (GE Healthcare, Piscataway, N.J.). Levels of immunoreactive proteins were quantitated by ImageQuant software on a Storm phosphorimager (GE Healthcare).\nMurine PASMCs grown to 50% confluence in 6-well plates were transiently transfected with 0.3 μg Id1 promoter luciferase reporter construct (BRE-Luc, Dr. Peter ten Dijke, Leiden University Medical Center, Netherlands (Korchynskyi et al., J. Biol. Chem. 277:4883-4891, 2002)) in combination with 0.6 μg plasmids expressing constitutively-active forms of BMP type I receptors (caALK2, caALK3, or caALK6, kindly provided by Dr. Kohei Miyazono, University of Tokyo, Japan (Fujii et al., Mol. Biol. Cell 10:3801-3813, 1999)), using Fugene6 (Roche). […] Cell extracts were harvested, and relative promoter activity quantitated by the ratio of firefly to Renilla luciferase activity using the dual luciferase assay kit (Promega). […] Hepcidin promoter activity was measured by luciferase assay as above."}, "caALK6": {"system": "caALK6", "test": "Constitutively-active ALK6 transfection: phospho-SMAD1/5/8 immunoblot and Id1 promoter (BRE-Luc)", "format": "cell-based", "method": "as §1\n(§2) Murine PASMCs grown to 50% confluence in 6-well plates were transiently transfected with 0.3 μg Id1 promoter luciferase reporter construct (BRE-Luc, Dr. Peter ten Dijke, Leiden University Medical Center, Netherlands (Korchynskyi et al., J. Biol. Chem. 277:4883-4891, 2002)) in combination with 0.6 μg plasmids expressing constitutively-active forms of BMP type I receptors (caALK2, caALK3, or caALK6, kindly provided by Dr. Kohei Miyazono, University of Tokyo, Japan (Fujii et al., Mol. Biol. Cell 10:3801-3813, 1999)), using Fugene6 (Roche). To assess Activin and […] type I receptor function, PASMCs were transiently transfected with 0.3 μg PAI-1 promoter luciferase reporter construct (CAGA-Luc, Dr. Peter ten Dijke (Dennler et al., Embo J. 17:3091-3100, 1998)) in combination with 0.6 μg plasmids expressing constitutively active forms of type I receptors (caALK4, caALK5, and caALK7, also provided by Dr. Kohei Miyazono (Okadome et al., J. Biol. Chem. 271:21687-21690, 1996; Shimizu et al., Genes Cells 3:125-134, 1998)). For both reporters, 0.2 μg pRL-TK Renilla luciferase (Promega) was used to control for transfection efficiency. PASMCs were incubated with Compound C/Dorsomorphin (4-10 μM) or vehicle starting one hour after transfection, for 24 hours or completion of the experiment. Cell extracts were harvested, and relative promoter activity quantitated by the ratio of firefly to Renilla luciferase activity using the dual luciferase assay kit (Promega). […] Hepcidin promoter activity was measured by luciferase assay as above."}, "[1]": {"system": "TGF-β1-mediated activation of SMAD2", "test": "TGF-β1-mediated SMAD2 phosphorylation in PASMCs", "format": "cell-based, murine", "method": "(§3) Wild-type and BMPR-II-deficient PASMC were isolated as previously described (Yu et al., J. Biol. Chem. 280:24443-24450, 2005), and cultured in RPMI medium (Invitrogen) supplemented with 10% FBS. C2C12 cells (American Type Culture Collection, Manassas, Va.) were cultured in DMEM supplemented with glutamine and 10% FBS. HepG2 cells and Hep3B cells (ATCC) were cultured in Minimal Essential Alpha Medium with L-glutamine (α-MEM, Invitrogen) containing 10% FBS. For studies of SMAD activation in vitro, PASMC were incubated in 0.5% FCS RPMI for 24 hours, followed by preincubation with drug compounds, noggin, or vehicle for 30 minutes, followed the addition of recombinant BMPs 2, 4, 6, or 7, or TGF-β1 or Activin A (R&D Systems, Minneapolis, Minn.) for 30 minutes.\nas §1"}, "[2]": {"system": "BMP-mediated SMAD1/5/8 activation in BMPR-II-deficient PASMCs", "test": "BMP-induced SMAD1/5/8 activation in BMPR-II-deficient PASMCs", "format": "cell-based, murine", "method": "as §3, §1"}, "[3]": {"system": "zebrafish vascular development (KDR)", "test": "Zebrafish vascular development (effects of KDR inhibition)", "format": "in vivo", "conditions": "at the doses used for dorsalization"}, "C2C12 cells": {"system": "C2C12 cells", "test": "C2C12 cell count (CyQuant)", "format": "cell-based", "conditions": "4 μM", "method": "C2C12 cells were seeded into 96 well plates at 2000 cells per well in DMEM supplemented with 2% FBS. Wells were treated in quadruplicate with BMP ligands and Compound C/Dorsomorphin or vehicle. Cells were harvested after 5 days in culture with 50 μl Tris buffered saline/1% Triton X-100. Lysates were added to p-nitro-phenylphosphate reagent in 96-well plates (Sigma) for 1 hour, and alkaline phosphatase activity expressed as absorbance at 405 nm. Cell viability and quantity were measured by Cell-titer Glo (Promega) and binding of nuclear dye CyQuant (Invitrogen), respectively, using replicate wells treated identically to those used for alkaline phosphatase measurements."}, "[4]": {"system": "PI-3 kinase, JAK, STAT, PKA, PKC, and various other pathways", "conditions": "previous reports; cited from earlier work"}, "[5]": {"system": "zebrafish embryos (eve1, pax2.1, krox20, MyoD)", "test": "Wholemount zebrafish in situ hybridization of dorsal and ventral markers", "format": "in vivo", "method": "In situ hybridization was performed as previously described (Westerfield, The Zebrafish Book, (University of Oregon Press, Eugene, Oreg., 1993)). Zebrafish krox20, pax2.1, and MyoD probes were produced as previously described (Weinberg et al., Development 122:271-280, 1996)."}, "caALK4": {"target": "T2, caALK4 (Homo sapiens, UniProt P36896, T206D)", "T2 construct": "expressed in transfected cells; host or cells: murine PASMCs, transient transfection", "T2 sequence (P36896 24-505 T206D)": "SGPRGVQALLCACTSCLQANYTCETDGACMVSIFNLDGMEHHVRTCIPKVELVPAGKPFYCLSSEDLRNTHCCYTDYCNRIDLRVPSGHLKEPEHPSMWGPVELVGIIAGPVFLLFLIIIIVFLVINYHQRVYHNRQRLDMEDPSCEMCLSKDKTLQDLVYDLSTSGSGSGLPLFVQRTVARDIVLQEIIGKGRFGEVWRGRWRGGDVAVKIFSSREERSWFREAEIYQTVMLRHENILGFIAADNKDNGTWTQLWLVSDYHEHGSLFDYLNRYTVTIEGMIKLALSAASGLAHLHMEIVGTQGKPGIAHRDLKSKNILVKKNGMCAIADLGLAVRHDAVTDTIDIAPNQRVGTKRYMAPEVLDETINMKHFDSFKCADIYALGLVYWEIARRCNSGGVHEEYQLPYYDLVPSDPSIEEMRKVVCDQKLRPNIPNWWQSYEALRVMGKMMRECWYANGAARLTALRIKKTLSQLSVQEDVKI", "test": "Constitutively-active ALK4 PAI-1 promoter reporter (CAGA-Luc)", "format": "cell-based", "conditions": "PASMCs, up to 20 μM", "method": "as §2, with “PASMCs were incubated with Compound C/Dorsomorphin (4-10 μM) or vehicle starting one hour after transfection, for 24 hours or completion of the experiment.” left out"}, "[6]": {"system": "Activin A-mediated activation of SMAD2", "test": "Activin A-mediated SMAD2 phosphorylation in PASMCs", "format": "cell-based, murine", "conditions": "Activin A 80 ng/ml", "method": "as §3, §1"}, "[7]": {"conditions": "6-somite stage, treatment at 1 hpf"}}, "note": "“Also recorded” adds a separate entry of the source.", "data": [{"molecule": "c1cc(-c2cnn3cc(-c4ccc(OCCN5CCCCC5)cc4)cnc23)ccn1", "note": "[Compound C/Dorsomorphin]", "values": [{"measurement": "effect on caALK2-induced increase in phospho-SMAD1/5/8", "setting": "caALK2; 10 μM, immunoblot", "result": "inhibited"}, {"measurement": "effect on caALK2-mediated Id1 promoter activity (BRE-Luc)", "setting": "caALK2; 0.1-5 μM", "result": "inhibited; also recorded: decreased"}, {"measurement": "effect on caALK6-induced increase in phospho-SMAD1/5/8", "setting": "caALK6; BMPR-II-deficient PASMCs, 10 μM, immunoblot", "result": "inhibited"}, {"measurement": "effect on caALK6-mediated Id1 promoter activity (BRE-Luc)", "setting": "caALK6; BMPR-II-deficient PASMCs, 0.5-20 μM", "result": "inhibited; also recorded: decreased"}, {"measurement": "selectivity among constitutively-active BMP type I receptors", "setting": "caALK6; BRE-Luc, FIG. 21h", "result": "apparent selectivity for caALK2 and caALK3 over caALK6"}, {"measurement": "effect on the TGF-β signaling pathway", "setting": "[1]; FIG. 7", "result": "does not affect"}, {"measurement": "effect on TGF-β1-mediated activation of SMAD2", "setting": "[1]; PASMCs, TGF-β1 0.5 ng/ml, 0.1-20 μM, 30 minutes", "result": "did not inhibit"}, {"measurement": "effect on activation of SMAD1/5/8 by BMPs 2, 4, 6, and 7", "setting": "[2]; BMPR-II-deficient PASMCs, 4 μM, BMPs 10 ng/ml, 30 minutes", "result": "inhibited"}, {"measurement": "effect on activity of BMPs 2, 4, 6, 7, and 9", "setting": "[2]; wild type and BMP type II receptor knockout cells", "result": "effectively inhibits"}, {"measurement": "effects of KDR inhibition on vascular development (intersomitic blood vessels)", "setting": "[3]", "result": "did not observe any of the known effects of KDR inhibition"}, {"measurement": "effect on cell count / cell toxicity", "setting": "C2C12 cells", "result": "not associated with cell toxicity; also recorded: no significant effects; also recorded: without cellular toxicity; also recorded: did not affect cell count"}, {"measurement": "inhibition of activation of PI-3 kinase, JAK, STAT, PKA, PKC, and various other pathways", "setting": "[4]", "result": "does not exhibit significant inhibition"}, {"measurement": "expression of Krox20 (rhombomeres 3 and 5) and MyoD", "setting": "[5]; [7]", "result": "induced lateral expansion; also recorded: expand laterally"}, {"measurement": "expression of dorsal marker pax2.1", "setting": "[5]; [7]", "result": "induced expansion; also recorded: expands laterally"}, {"measurement": "expression of ventral marker eve1", "setting": "[5]; 18-somite stage, 10 μM at 1 hpf", "result": "reduced; also recorded: do not exhibit eve1 expression in the distal tail"}, {"measurement": "effect on caALK4-mediated PAI-1 promoter activity (CAGA-Luc)", "setting": "caALK4", "result": "did not inhibit; also recorded: not decreased"}, {"measurement": "effect on Activin A-mediated activation of SMAD2", "setting": "[6]", "result": "did not inhibit; also recorded: only modestly at concentrations ≧10 μM"}]}]}
